In patent publication US8153160B2 (Bayer Pharma Aktiengesellschaft, priority 2005, dated 2012):

Key:
[1] = In vitro release, USP release method with apparatus 2 (paddle); format: physicochemical; settings: 100 rpm, 900 ml phosphate buffer pH 6.8 + 1.0% sodium lauryl sulfate, JP sinker
Experimental: The in vitro release investigations described below were carried out by the USP release method with apparatus 2 (paddle). […] Also added to the buffer solution to set up sink conditions is 1% sodium lauryl sulfate. The tablet formulations are preferably released from a sinker as specified in the Japanese Pharmacopoeia.

[2] = cited from earlier work

With `CCCCc1nc(Cl)c(CO)n1Cc1ccc(-c2ccccc2-c2nn[nH]n2)cc1` [Losartan-K, losartan potassium] the “Release [%] at 2 h” value ([1]; from tablet Exemplary formulation 2.1 (30 mg nifedipine, osmotic two-chamber system), time 2 h) was 2%, the “Release [%] at 4 h” value ([1]; from tablet Exemplary formulation 2.1 (30 mg nifedipine, osmotic two-chamber system), time 4 h) was 19% and the “Release [%] at 8 h” value ([1]; from tablet Exemplary formulation 2.1 (30 mg nifedipine, osmotic two-chamber system), time 8 h) was 48%. For the same compound, the “Release [%] at 12 h” value ([1]; from tablet Exemplary formulation 2.1 (30 mg nifedipine, osmotic two-chamber system), time 12 h) was 77%, the “Release [%] at 24 h” value ([1]; from tablet Exemplary formulation 2.1 (30 mg nifedipine, osmotic two-chamber system), time 24 h) was 96% and the “water solubility, classified in words” value [2] was “freely soluble”.
For `CCCc1nc2c(C)cc(-c3nc4ccccc4n3C)cc2n1Cc1ccc(-c2ccccc2C(=O)O)cc1` [Telmisartan], the “Release [%] at 2 h” value ([1]; from nifedipine/telmisartan osmotic two-chamber tablet, heading prints Exemplary Formulation 2.1, time 2 h) was 5%, the “Release [%] at 5 h” value ([1]; from nifedipine/telmisartan osmotic two-chamber tablet, heading prints Exemplary Formulation 2.1, time 5 h) was 22% and the “Release [%] at 10 h” value ([1]; from nifedipine/telmisartan osmotic two-chamber tablet, heading prints Exemplary Formulation 2.1, time 10 h) was 51%. For the same compound, the “Release [%] at 15 h” value ([1]; from nifedipine/telmisartan osmotic two-chamber tablet, heading prints Exemplary Formulation 2.1, time 15 h) was 80% and the “Release [%] at 24 h” value ([1]; from nifedipine/telmisartan osmotic two-chamber tablet, heading prints Exemplary Formulation 2.1, time 24 h) was 90%.
For `CCOc1nc2cccc(C(=O)OC(C)OC(=O)OC3CCCCC3)c2n1Cc1ccc(-c2ccccc2-c2nnn[nH]2)cc1` (stereo not shown) [candesartan cilexetil], the “water solubility, classified in words” value [2] is listed as “virtually insoluble in water”.
In the case of `COC(=O)C1=C(C)NC(C)=C(C(=O)OCC(C)C)C1c1ccccc1[N+](=O)[O-]` (stereo not shown) [nisoldipine], the water solubility [2] is given as “about 2 mg/l”.
